Experimental data published in ChEMBL document CHEMBL2321846, “Aldosterone synthase inhibitors: targeting chronic kidney disease and diabetic nephropathy” (ACS Med Chem Lett, 2013).

Key:
[1] = target: T1, Cytochrome P450 11B2, mitochondrial (Homo sapiens, UniProt P19099); assay: Inhibition of human aldosterone synthase transfected in chinese hamster V79 cells after 24 hrs by LC-MS method; assay type: cell-based
T1 sequence (P19099 whole entry): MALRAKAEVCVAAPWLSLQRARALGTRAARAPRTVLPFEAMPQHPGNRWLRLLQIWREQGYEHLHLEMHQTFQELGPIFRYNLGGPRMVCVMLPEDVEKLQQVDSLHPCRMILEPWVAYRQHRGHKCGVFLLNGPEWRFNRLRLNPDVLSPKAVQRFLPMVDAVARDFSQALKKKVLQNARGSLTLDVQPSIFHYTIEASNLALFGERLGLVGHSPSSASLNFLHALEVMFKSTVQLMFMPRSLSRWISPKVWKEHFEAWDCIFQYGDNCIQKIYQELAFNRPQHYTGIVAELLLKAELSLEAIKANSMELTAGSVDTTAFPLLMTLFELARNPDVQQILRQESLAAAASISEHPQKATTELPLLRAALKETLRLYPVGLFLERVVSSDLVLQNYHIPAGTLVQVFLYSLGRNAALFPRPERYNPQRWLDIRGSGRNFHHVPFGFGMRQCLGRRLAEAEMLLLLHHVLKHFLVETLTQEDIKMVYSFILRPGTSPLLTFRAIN

[2] = system: estradiol production (relative to human aldosterone synthase); assay: Selectivity ratio of IC50 for estradiol production in human H295R cells to IC50 for human aldosterone synthase; assay type: ADME, cell-based; details: read-out: Ratio IC50
NCI-H295R [3] = assay: Inhibition of testosterone production in human NCI-H295R cells after 48 hrs by HPLC analysis; assay type: functional, cell-based
NCI-H295R [4] = assay: Inhibition of estradiol production in human NCI-H295R cells after 48 hrs by HPLC analysis; assay type: functional, cell-based
[5] = system: testosterone production (relative to human aldosterone synthase); assay: Selectivity ratio of IC50 for testosterone production in human H295R cells to IC50 for human aldosterone synthase; assay type: ADME, cell-based; details: read-out: Ratio IC50

| Compound | IC50 [1] [µM] | selectivity ratio [2] | IC50 (NCI-H295R [3]) [µM] | IC50 (NCI-H295R [4]) [µM] | selectivity ratio [5] |
| --- | --- | --- | --- | --- | --- |
| CC1(C)CC(c2ccc(C#N)cc2F)c2cn[nH]c21 (stereo not given) | 0.007 | 3140 | > 30 | 22 | > 4280 |
| CC1(C)C[C@H](c2ccc(C#N)cc2)c2cn[nH]c21 | 0.005 | 2640 | > 30 | 13.2 | > 6000 |
